Like-named read-outs stand apart in the source and are kept apart here.
Legend:
[1] = tested on: sows; settings: cited from earlier work
[2] = tested on: sows (PIC Line C22); assay: Sow feeding trial: L-carnitine and/or chromium tris-picolinate top dress over two parities, reproductive performance; assay type: in vivo; settings: for First service FR %: first service farrowing rate; for No. of sows Weaned parity 1: Second parity section; for first service farrowing rate: parity 2; for No. of sows Farrowed in parity 1 / No. of sows Farrowed in parity 2 / Number of sows removed from experiment: sow longevity table
Description: This experiment was conducted on a commercial 1,500 sow farrow-to-wean operation in central Kansas and used 599 sows (PIC Line C22). Experimental treatments were arranged in a 2×2 factorial with main effects of added L-carnitine (0 or 50 ppm) and chromium tris-picolinate (0 or 200 ppb). Sows were started on test on the first day of breeding. Each sow remained on the same treatment through gestation, lactation, and through a second gestation period (2 parities). During gestation, all sows were fed a grain sorghum-soybean meal-based diet formulated to contain 0.65% lysine, 0.83% Ca, and 0.76% P. In lactation, all sows were fed a grain sorghum-soybean meal based diet formulated to contain 1.10% lysine, 0.90% Ca, and 0.80% P (Table 3). Dietary treatments were provided via a corn-based top dress fed at 30 g/d. The top dress was formulated to provide 90 mg/d and 250 mg/d carnitine in gestation and lactation, respectively. Chromium tris-picolinate was provided at 360 mcg/d and 1,000 mcg/d during gestation and lactation, respectively. These inclusions were calculated to provide 50 mg/kg carnitine (CarniFeed, Lonza Inc., NJ) and 200 mcg/kg chromium (Chromapure, Lonza Inc., NJ) when sows were fed 4 lb/d of the gestation diet and 11 lb/d of the lactation diet. The top dress was added to the top of the feed box between meals in order to be consumed with the rest of the diet. The top dress was color-coded (1% dyed corncobs) by treatment to assure proper distribution of experimental treatments.
At farrowing, the number of pigs born alive, as stillborn, as mummies, and total born were recorded. Total born was the sum of the number of pigs born alive, stillborn, and mummies. Sows were rebred after weaning (15 d lactation) and remained on the same treatment until farrowing a second litter. […] Sows that were bred at the start of the study, but were later found open, were removed from the trial. Procedures and data collection were identical for the second gestation and lactation period. However, dietary treatments were not administered during the second lactation period.
Calculations were made to determine the total number of pigs born, born alive, as stillborns, or as mummies per sow for the two parities. Total number of pigs were calculated using only sows that initially farrowed, then completed the second parity, as well as calculated from all the sows that were actually started on test.
Data were analyzed using the MIXED procedure of SAS. Sow was the experimental unit for the analysis with parity, previous lactation length, and/or week of farrowing as a covariate (Table IV) for total born, number of pigs born alive, mummies, and stillborn. A chi-square statistic was calculated to determine differences among treatments when analyzing percent in estrus and farrowing rate.

[3] = tested on: sows; settings: 200 μg/kg of chromium fed to sows; Lindemann et al. (1995b); cited from earlier work
[4] = L-carnitine added to gestating sow diets, Musser et al. (1999b)
[5] = all sows started on test for two parities
[6] = sows that completed parity one, two parities
[7] = 200 μg/kg of chromium, Lindemann et al. (1995b), Hagen et al. (2000)

| Compound | % estrus by d 7 ([2]; First parity) [%] | % estrus by d 18 ([2]; First parity) [%] | No. of pigs Born alive ([2]; First parity) | No. of pigs Mummies ([2]; First parity) | No. of pigs Stiliborn ([2]; First parity) | No. of pigs Total born ([2]; First parity) | No. of sows Farrowed ([2]; First parity) | WEI d (wean to estrus interval) ([2]; First parity) [days] | First service FR % ([2]; First parity) [%] | % estrus by d 7 ([2]; Second parity) [%] | % estrus by d 18 ([2]; Second parity) [%] | No. of pigs Born alive ([2]; Second parity) | No. of pigs Mummies ([2]; Second parity) | No. of pigs Stiliborn ([2]; Second parity) | No. of pigs Total born ([2]; Second parity) | No. of sows Bred by d 18 ([2]; Second parity) | No. of sows Farrowed ([2]; Second parity) | Percentage of weaned parity 1 sows that farrowed parity 2 ([2]; Second parity) [%] | WEI (wean to estrus interval) ([2]; Second parity) | No. of sows Weaned parity 1 [2] | other results |
| --- | --- | --- | --- | --- | --- | --- | --- | --- | --- | --- | --- | --- | --- | --- | --- | --- | --- | --- | --- | --- | --- |
| C[N+](C)(C)C[C@H](O)CC(=O)[O-] [Carnitine, L-carnitine] | 88.6 | 91.5 | 9.8 | 0.26 | 0.98 | 11.4 | 140 | 4.6 | 91.9 | 76.9 | 80.8 | 9.9 | 0.33 | 1.02 | 11.2 | 128 | 104 | 73.9 | 4.7 | 140 | farrowing rate, total number of pigs born or born alive ([1]; 50 mg/kg of carnitine during lactation, three experiments, Musser et al. (1999a)): minimal differences; farrowing rate [1, 4]: no effect; number of pigs born alive in the subsequent parity [1, 4]: increase; total number of pigs born and born alive ([1]; L-carnitine fed during gestation, Musser et al. (1999a)): increases; First service FR % ([2]; Second parity): 81.3%; Total pigs per sow, Born alive [2, 5]: 16.3; Total pigs per sow, Mummies [2, 5]: 0.5; Total pigs per sow, Stillborn [2, 5]: 1.6; Total pigs per sow, Total born [2, 5]: 18.4; first service farrowing rate ([2]; result in words): did not influence; No. of sows Farrowed in parity 1 [2]: 140; No. of sows Farrowed in parity 2 [2]: 104; Number of sows removed from experiment [2]: 46; Total pigs per sow, Born alive [2, 6]: 17.6; Total pigs per sow, Mummies [2, 6]: 0.5; Total pigs per sow, Stillborn [2, 6]: 1.7; Total pigs per sow, Total born [2, 6]: 19.8 |
| chromium tris-picolinate | 86.7 | 91.7 | 10.2 | 0.39 | 1.26 | 11.5 | 138 | 4.7 | 95.5 | 81.0 | 82.9 | 9.5 | 0.40 | 1.09 | 11.0 | 127 | 102 | 74.3 | 4.6 | 138 | plasma insulin and insulin to glucose ratio [3]: decreased; farrowing rate [1, 7]: no effects; number of pigs born alive [1, 7]: increases; First service FR % ([2]; Second parity): 79.7%; Total pigs per sow, Born alive [2, 5]: 16.2; Total pigs per sow, Mummies [2, 5]: 0.7; Total pigs per sow, Stillborn [2, 5]: 2.0; Total pigs per sow, Total born [2, 5]: 18.8; farrowing rate ([2]; our study, result in words): increases; number born alive ([2]; our study, result in words): no improvements; number of stillborn pigs per litter ([2]; our study, result in words): tendencies to increase; first service farrowing rate ([2]; result in words): did not influence; No. of sows Farrowed in parity 1 [2]: 138; No. of sows Farrowed in parity 2 [2]: 102; Number of sows removed from experiment [2]: 45; Total pigs per sow, Born alive [2, 6]: 16.8; Total pigs per sow, Mummies [2, 6]: 0.6; Total pigs per sow, Stillborn [2, 6]: 2.1; Total pigs per sow, Total born [2, 6]: 19.5 |
